{"source": "patent US12319681B2", "about": "“Tripartite androgen receptor eliminators, methods and uses thereof” (SPG Therapeutics, Inc., priority 2017, dated 2025)", "key": {"androgen receptor (AR) [1]": {"molecular_target": "T1, androgen receptor (AR) (Homo sapiens, UniProt P10275)", "T1 construct": "human keratinocytes transfected with an AR luciferase reporter gene; endogenous in cells; host or cells: normal human adult primary epidermal keratinocytes (ATCC PCS-200-011)", "T1 sequence (P10275 1-920)": "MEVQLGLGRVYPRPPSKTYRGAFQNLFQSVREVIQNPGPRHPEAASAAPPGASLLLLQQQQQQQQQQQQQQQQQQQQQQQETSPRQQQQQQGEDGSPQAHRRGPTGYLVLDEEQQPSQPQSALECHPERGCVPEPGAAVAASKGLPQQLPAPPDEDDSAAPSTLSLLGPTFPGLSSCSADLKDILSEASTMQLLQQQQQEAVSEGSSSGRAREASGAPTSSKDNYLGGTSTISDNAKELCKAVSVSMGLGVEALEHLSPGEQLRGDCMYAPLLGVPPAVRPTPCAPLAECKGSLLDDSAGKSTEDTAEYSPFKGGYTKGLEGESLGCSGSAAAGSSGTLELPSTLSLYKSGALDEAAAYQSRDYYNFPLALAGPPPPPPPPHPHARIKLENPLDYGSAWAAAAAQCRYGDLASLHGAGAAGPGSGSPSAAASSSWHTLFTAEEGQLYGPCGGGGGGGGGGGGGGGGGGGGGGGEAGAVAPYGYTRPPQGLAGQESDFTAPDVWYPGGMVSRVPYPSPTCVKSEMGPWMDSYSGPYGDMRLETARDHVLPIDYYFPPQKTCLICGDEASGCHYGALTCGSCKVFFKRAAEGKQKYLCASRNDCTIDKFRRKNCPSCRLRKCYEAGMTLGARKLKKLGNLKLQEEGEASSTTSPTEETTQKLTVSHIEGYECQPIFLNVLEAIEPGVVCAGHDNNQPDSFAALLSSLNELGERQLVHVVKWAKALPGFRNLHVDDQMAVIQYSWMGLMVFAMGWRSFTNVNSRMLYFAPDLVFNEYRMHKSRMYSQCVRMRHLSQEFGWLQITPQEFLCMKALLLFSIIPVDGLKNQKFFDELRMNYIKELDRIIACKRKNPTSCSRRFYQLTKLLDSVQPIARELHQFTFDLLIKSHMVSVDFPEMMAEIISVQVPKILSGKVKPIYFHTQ", "test": "Keratinocyte AR Reporter Gene Assay with washout (sustained effects)", "type": "cell-based", "details": "7.0 μM for 24 hours", "protocol": "Reporter gene activity was measured following two days or three days of additional cell culture in the absence of AR antagonists. AR reporter gene activity reduction was calculated as follows: 1−(average signal (treatment group)/(average signal (treatment group, without drug, same washout period)."}, "[2]": {"system": "normal Human Adult Primary Epidermal Keratinocyte cell line", "details": "24 h", "quoted_text": "For the Keratinocyte assay, normal Human Adult Primary Epidermal Keratinocyte cell line (ATCC PCS-200-011) was maintained in EPIUFE® Medium, with 60 μM calcium (Thermo MEPISOOCA) supplemented with Human Keratinocyte Growth Supplement, 100 U/mL penicillin, and 100 μg/mL streptomycin at 37° C. with 5% C02. For experiments, cells were seeded at 70% confluence per well in 100 μL of medium in 96-well plates. […] After 16 hours, medium was removed and replaced with dosing medium.\nA 5α-Androstan-17β-ol-3-one (DHT) stock solution was prepared at 1,000× in ethanol. […] Dosing medium was prepared at the time of treatment by serial diluting stock solution into medium. Ethanol concentrations in media never exceeded 0.1%. […] Negative control wells contained 100 μL medium/well with 1 μL of ethanol/mL of medium and an appropriate amount of DMSO. Each plate also contained 1.0 nM DHT with an ARE or without an ARE as a positive control. Cells were incubated 24 hours at 37° C. without CO2.\nTo assess for cell viability, cells were first visually examined under a phase-contrast microscope to record cell confluence, morphological changes, and presence of drug crystallization as well as to observe signs of cytotoxity such as, e.g., detachment, vacuolization, membrane degradation, or lack of phase brightness. After microscopic inspection, a Trypan Blue exclusion assay was performed to assess cell viability and cell number for each well. Each well was washed with 0.5 mL volume of PBS. 30 µL of Trypan Blue was added to each well for 5-10 minutes. Total cell number and total viable cell number will be counted from 1 number of fields per well, in triplicate."}, "androgen receptor (AR) [3]": {"molecular_target": "T1, androgen receptor (AR)", "test": "Keratinocyte AR protein level ELISA (Example 10)", "type": "cell-based", "details": "24 h, read-out: AR Reduction", "protocol": "(§1) Each ARE tested was prepared in DMSO. […] Ethanol concentrations in media never exceeded 0.1%.\nTo assess levels of AR, an ELISA was performed."}, "human keratinocytes": {"system": "human keratinocytes", "test": "Keratinocyte cell viability / cytotoxicity in Example 12", "type": "cell-based", "details": "extended treatment"}, "androgen receptor (AR) [4]": {"molecular_target": "T2, androgen receptor (AR) (Homo sapiens, UniProt P10275)", "test": "MDA-kb2 Assay with 0.1 nM DHT (Example 13)", "type": "cell-based", "protocol": "(§2) To assess ARE-mediated inhibition, an AR luciferase assay was performed. After washing cells with 1×PBS, 20 μL lysis buffer (25 mM Tris/phosphate, 4 mM EGTA, 1% Triton, 10% glycerol, 2 mM DTT) was added per well, incubated for 5 minutes with gentle shaking and store at −80° C. On the day of assay, the plates were thawed to ambient temperature and 80 μL of assay buffer (25 mM glycylglycine, 15 mM MgCl2. 5 mM ATP, 0.1 mg/ml BSA) was added to each well. Plates are then processed on a microplate reader (POLARstar Omega) by injecting 100 μL of 1 mM D-luciferin per well, followed by chemiluminescence measurement of 3 seconds at onset of injection. Luciferase activity was determined, measured, and normalized to Relative Light Units (RLU). AR reporter gene activity reduction values were calculated as follows: AR reporter gene activity=1−(average signal (treatment group)/average signal (treatment group without drug).\nTo determine efficacy of a compound, a MDA-kb2 assay was performed as described in Example 10. The cells were treated with compounds for 24 hours prior to measurements of reporter gene activity. […] AR luciferase assay results were analyzed using GraphPad Prism using a four-parameter logistic curve equation. Bottom constraints were set at 1 (level of uninduced control.)"}, "androgen receptor (AR) [5]": {"molecular_target": "T1, androgen receptor (AR)", "test": "Keratinocyte AR Reporter Gene Assay, 24 and 72 hours continuous exposure (Example 12)", "type": "cell-based", "details": "keratinocytes", "protocol": "as §2\nThis example illustrates how to determine the inhibitory activity of an ARE disclosed herein using a cell-based androgen receptor transcriptional reporter assay using primary human keratinocytes.\nResults were analyzed for IC50 and IC90 values in GraphPad Prism using a four-parameter logistic curve equation. Bottom constraints were set to 1 (level of uninduced control)."}, "androgen receptor (AR) [6]": {"molecular_target": "T2, androgen receptor (AR)", "test": "MDA-kb2 AR luciferase reporter gene assay (1.0 nM DHT)", "type": "cell-based", "details": "MDA-kb2, 24 h, read-out: Gene Activity Reduction", "protocol": "This example illustrates how to determine the inhibitory activity of an ARE disclosed herein using a cell-based androgen receptor transcriptional reporter assay using an engineered cell line.\nas §1, §2"}}, "note": "Read-outs that look alike come from different tables or passages of the source.", "data": [{"smiles": "CC12CCC(=O)C=C1C[C@@H](SC(=O)CC13CC4CC(CC(C4)C1)C3)C1C2CCC2(C)C1CC[C@@]21CCC(=O)O1", "note": "(stereo partly drawn) [SPG-003]", "values": [{"measurement": "AR reporter gene activity reduction", "setting": "androgen receptor (AR) [1]; Washout Period 0 days", "result": "89 ± 1.0", "unit": "%"}, {"measurement": "AR reporter gene activity reduction", "setting": "androgen receptor (AR) [1]; Washout Period 2 days", "result": "64 ± 0.3", "unit": "%"}, {"measurement": "Cell Viability", "setting": "[2]; 0.1 μM", "result": 93, "unit": "%"}, {"measurement": "Cell Viability", "setting": "[2]; 1 μM", "result": 93, "unit": "%"}, {"measurement": "Cell Viability", "setting": "[2]; 3 μM", "result": 94, "unit": "%"}, {"measurement": "Cell Viability", "setting": "[2]; 10 μM", "result": 93, "unit": "%"}, {"measurement": "inhibition at 0.1 µM", "setting": "androgen receptor (AR) [3]", "result": 6, "unit": "%"}, {"measurement": "inhibition at 1 µM", "setting": "androgen receptor (AR) [3]", "result": 19, "unit": "%"}, {"measurement": "inhibition at 3 µM", "setting": "androgen receptor (AR) [3]", "result": 26, "unit": "%"}, {"measurement": "inhibition at 10 µM", "setting": "androgen receptor (AR) [3]", "result": 65, "unit": "%"}, {"measurement": "cell cytotoxicity (in words)", "setting": "human keratinocytes", "result": "minimal"}, {"measurement": "IC50", "setting": "androgen receptor (AR) [4]; MDA-kb2, 0.1 nM DHT, 24 hours", "result": 0.789, "unit": "µM"}, {"measurement": "IC90", "setting": "androgen receptor (AR) [4]; MDA-kb2, 0.1 nM DHT, 24 hours", "result": 2.71, "unit": "µM"}, {"measurement": "Maximum Inhibition", "setting": "androgen receptor (AR) [4]; MDA-kb2, 0.1 nM DHT, 24 hours", "result": 95, "unit": "%"}, {"measurement": "dose-dependent inhibition of AR reporter gene activity (in words)", "setting": "androgen receptor (AR) [4]; MDA-kb2, reduced DHT levels (0.1 nM)", "result": "dose-dependent inhibition"}, {"measurement": "IC50", "setting": "androgen receptor (AR) [5]; 24-hr Treatment", "result": 3.68, "unit": "µM"}, {"measurement": "IC90", "setting": "androgen receptor (AR) [5]; 24-hr Treatment", "result": 6.96, "unit": "µM"}, {"measurement": "Maximum Inhibition", "setting": "androgen receptor (AR) [5]; 24-hr Treatment", "result": 91, "unit": "%"}, {"measurement": "IC50", "setting": "androgen receptor (AR) [5]; 24-hr treatment", "result": 3.7, "unit": "µM"}, {"measurement": "IC90", "setting": "androgen receptor (AR) [5]; 24-hr treatment", "result": 7, "unit": "µM"}, {"measurement": "IC50", "setting": "androgen receptor (AR) [5]; 72-hour treatment", "result": 2.5, "unit": "µM"}, {"measurement": "IC90", "setting": "androgen receptor (AR) [5]; 72-hour treatment", "result": 5.7, "unit": "µM"}, {"measurement": "IC50", "setting": "androgen receptor (AR) [5]; 72-hr Treatment", "result": 2.57, "unit": "µM"}, {"measurement": "IC90", "setting": "androgen receptor (AR) [5]; 72-hr Treatment", "result": 5.68, "unit": "µM"}, {"measurement": "Maximum Inhibition", "setting": "androgen receptor (AR) [5]; 72-hr Treatment", "result": 93, "unit": "%"}, {"measurement": "inhibition of AR reporter gene activity (in words)", "setting": "androgen receptor (AR) [5]; 24 and 72 hours", "result": "dose-dependent inhibition"}, {"measurement": "inhibition at 0.1 µM", "setting": "androgen receptor (AR) [6]", "result": 8, "unit": "%"}, {"measurement": "inhibition at 1 µM", "setting": "androgen receptor (AR) [6]", "result": 20, "unit": "%"}, {"measurement": "inhibition at 3 µM", "setting": "androgen receptor (AR) [6]", "result": 40, "unit": "%"}, {"measurement": "inhibition at 10 µM", "setting": "androgen receptor (AR) [6]", "result": 90, "unit": "%"}]}]}
